Assay results as given in US20040072902A1, “Methods for inducing apoptosis and inhibiting proliferation in cancer cells” (priority 2003, published 2004).

Experiments:
[1] = system: AsPC-1 human pancreatic cancer cells; test: Thymidine incorporation proliferation assay in AsPC-1 cells; type: cell-based
Description: This can be seen in FIG. 1A (results using myristoleic acid obtained from Sigma Chemicals (St. Louis, Mo.)) and FIG. 1B (results using myristoleic acid obtained from Matreya, Inc. (State College, Pa.)).
(§1) The results are presented in FIG. 2A (cetyl myristoleic acid) and FIG. 2B (palmitoleic acid).
(§2) The thymidine incorporation experiments described in Example 1 were repeated in triplicate on each of two malignant human pancreatic cancer cell lines, AsPC-1 and PANC-1. The results are set forth in FIG. 3A (AsPC-1) and FIG. 3B (PANC-1).

[2] = system: AsPC-1 human pancreatic cancer cells; test: Cell morphology during inhibition of proliferation; type: cell-based; details: membrane blebbing, cellular rounding, detachment, data not shown
Description: as §1

HPAC xenografts = test: Growth of HPAC xenografts in athymic mice; type: in vivo; details: 250 mg/kg/day intraperitoneal
Method: (§3) The effects of daily intraperitoneal injection of myristoleic acid (250 mg/kg/day) on the growth of AsPC-1 and HPAC xenografts in athymic mice were investigated. Animals were injected daily with myristoleic acid (250 mg/kg/day) (labeled “myristoleic acid” in FIG. 6) or with a control solution (labeled “control” in FIG. 6) once visible tumors were established (about five days after implantation). […] The experiment was repeated twice with AsPC-1 cells and also with HPAC cells. The results set forth in FIG. 6 are representative of these experiments.
(§4) Tumor volumes of the above-described athymic mice were measured as a function of time, and the results are presented in FIG. 7A (AsPC-1 cancer cells) and FIG. 7B (HPAC cancer cells).
(§5) At the end of the experiment, the AsPC-1 and HPAC xenografts were harvested from the athymic mice and the weights of the tumors were measured.

AsPC-1 cells [3] = test: TUNEL assay (DNA fragmentation); type: cell-based, human; details: 10 μg/ml; 24 hours; versus control
Method: The effect of myristoleic acid (10 μg/ml) (“MA”) on terminal deoxynucleotidyl transferase-mediated dUTP nick end labeling (“TUNEL”) assay at 24 hours in AsPC-1 cells was investigated. The results are presented in FIGS. 5A (control) and 5B (10 μg/ml myristoleic acid). […] The results set forth in FIGS. 5A and 5B are representative of three separate experiments.

AsPC-1 cells [4] = test: Annexin V binding (early apoptosis); type: cell-based, human; details: 10 μg/ml; 3 or 5 hours after beginning treatment
Method: The effect of myristoleic acid (10 μg/ml) (“MA”) on annexin V binding in AsPC-1 cells at 3 or 5 hours after beginning treatment is shown in FIG. 4. […] This specific test utilizes the translocation of phophatidyl serine from the inner to outer plasma membrane, which is a feature of early apoptosis. The results set forth in FIG. 4 are representative of three separate experiments.

[5] = system: PANC-1 human pancreatic cancer cells; test: Thymidine incorporation proliferation assay in PANC-1 cells; type: cell-based
Description: as §2

AsPC-1 xenografts [6] = test: In situ TUNEL assay of harvested xenografts; type: in vivo, athymic mice; details: AsPC-1 xenografts harvested at end of experiment; versus vehicle (minimal staining)
Method: To determine whether the effects observed in the athymic mouse experiments described in Example 7 might be due to apoptosis, in situ TUNEL assays were carried out on the AsPC-1 xenografts that were harvested from the athymic mice at the end of the experiment. Images of xenograft sections from mice treated with the control solution (vehicle only) (FIGS. 9A and 9B) show minimal staining.

AsPC-1 xenografts [7] = test: Growth of AsPC-1 xenografts in athymic mice; type: in vivo; details: 250 mg/kg/day intraperitoneal
Method: as §3, §4, §5

Compound: CCCC/C=C\CCCCCCCC(=O)OCCCCCCCCCCCCCCCC [cetyl myristoleic acid]
- inhibition of proliferation as measured by thymidine incorporation ([1]; Example 2): concentration-dependent inhibition of proliferation
- morphological changes accompanying inhibition of proliferation [2]: morphological changes associated with apoptosis

Compound: CCCC/C=C\CCCCCCCC(=O)O [myristoleic acid]
- anti-proliferative activity, concentration range of effects [1]: low micromolar range
- inhibition of proliferation as measured by thymidine incorporation ([1]; 24 hours, myristoleic acid from two commercial sources (Sigma, Matreya)): concentration-dependent inhibition of proliferation
- effects on pancreatic cancer cell proliferation (thymidine incorporation) ([1]; repeated in triplicate): concentration-dependent effects
- morphological changes accompanying inhibition of proliferation [2]: morphological changes associated with apoptosis
- tumor size (HPAC xenografts; daily, HPAC xenografts, throughout the experimental period): marked reduction in tumor size
- tumor weight (HPAC xenografts; HPAC, at the end of the experiment): marked reduction
- tumor volume (HPAC xenografts; HPAC, throughout the experimental period): marked reduction
- number of apoptotic cells by TUNEL assay (AsPC-1 cells [3]): marked increase in the number of apoptotic cells
- annexin V binding (AsPC-1 cells [4]): Marked membrane fluorescence
- anti-proliferative activity, concentration range of effects [5]: low micromolar range
- effects on pancreatic cancer cell proliferation (thymidine incorporation) ([5]; repeated in triplicate): concentration-dependent effects
- apoptotic cells in xenograft sections (in situ TUNEL) (AsPC-1 xenografts [6]): many apoptotic cells
- tumor size (AsPC-1 xenografts [7]; daily, AsPC-1 xenografts, throughout the experimental period): marked reduction in tumor size
- tumor weight (AsPC-1 xenografts [7]; AsPC-1, at the end of the experiment): marked reduction
- tumor volume (AsPC-1 xenografts [7]; AsPC-1, throughout the experimental period): marked reduction

Compound: CCCCCC/C=C\CCCCCCCC(=O)O [palmitoleic acid]
- inhibition of proliferation as measured by thymidine incorporation ([1]; Example 2): concentration-dependent inhibition of proliferation
- morphological changes accompanying inhibition of proliferation [2]: morphological changes associated with apoptosis
